Several values for one entry are separate records, joined by “and”; a condition that tells them apart may be missing. Equal entries are not always repeated.
Tested on: 857933-349-R-J2-PDC complex spheroids, viability
Assay: Anticancer human tumor 857933-349-R-J2-PDC patient-derived colon adenocarcinoma cell line growth inhibition [GQUAD]
Settings: for viability, T/C: stronger effect = lower value
From the text: DNA G-quadruplex Stabilizer Agents in Combinations in Complex Spheroids
A high-throughput screen of multi-cell type tumor spheroids was designed to identify active combinations of DNA G-quadruplex stabilizer agents and targeted small molecules. Complex spheroids include a stromal component modeled by human endothelial cells (HUVEC) and fibroblasts modeled by human mesenchymal stem cells (MSCs). The concentration ranges selected for each drug and investigational agent were based upon clinically achievable concentrations if the clinical Cmax of the agent was known.
Compounds. The drugs and investigational agents: pidnarulex (CX-5461; NSC782164), APTO-253 (NSC789042), BRACO-19 (NSC847499), peposertib (NSC802822), ceralasertib (NSC780249), elimusertib (NSC800525), camonsertib (NSC841442), AZD-1390 (NSC803789), olaparib (NSC753686), talazoparib (NSC767125), ART-558 (NSC835418), sotorasib (NSC818433), MRTX-1133 (NSC836407), SN-38 (NSC673596), topotecan (NSC609699), etoposide (NSC141540), doxorubicin (NSC123127), gemcitabine (NSC613327), 5-fluorouracil (NSC19893), paclitaxel (NSC125973), vemurafenib (NSC761431), panobinostat (NSC761190), R-306465 (JNJ-16241199; NSC773264), adavosertib (NSC754352), TP-3654 (NSC805149), carboplatin (NSC241240), KSQ-4279 (NSC840948), and staurosporine (NSC755774) were obtained from the National Cancer Institute (NCI) Developmental Therapeutics Program Chemical Repository (34). The FDA-approved anticancer drug set is available from the NCI Developmental Therapeutics Program. […] The stock solutions were prepared in dimethyl sulfoxide (DMSO, Sigma-Aldrich, St. Louis, MO, cat. D2650) at 800-fold the tested concentration and stored at -70 degrees C prior to their use. All drugs and investigational agents were tested over a range starting from a high concentration at or near the clinical Cmax and decreasing in half-log increments. If the clinical Cmax for an agent had not been determined, the highest concentration tested was 10 microM.
2.3 Cell Culture. All cells were maintained in an incubator at 37 degrees C and 5% CO2 with 95% humidity. The PDC lines were cultured according to standard operating procedures established by the NCI PDMR. All PDCs were thawed and cultured in Matrigel-coated flasks prepared with a working solution of 1X Ham's F-12 nutrient mix, without supplementation (Invitrogen, cat. 11765054), 100 U/mL penicillin-streptomycin (Invitrogen, cat. 15140122), and 2.5% Matrigel (Corning Inc., cat. 354248) for the first three passages. The 857933-349-R-J2-PDC line was cultured in 6C/Colon 1B media, which includes advanced DMEM/F-12 (Thermo Fisher Scientific, cat. 12634028), 10 mM HEPES (Thermo Fisher Scientific, cat. 15630080), 1X GlutaMAX supplement (Thermo Fisher Scientific, cat. 35050061), 0.1 mg/mL primocin (InvivoGen, cat. ant-pm-2), 10% defined fetal bovine serum, heat inactivated (HyClone Laboratories Inc., cat. SH30070.03HI), 50% L-WRN conditioned media (ATCC, cat. CRL-3276), 1.25 mM N-Acetyl-L-cysteine (Sigma-Aldrich, cat. A9165), 10 mM nicotinamide (Sigma-Aldrich, cat. N0636), 1X B-27 supplement (Thermo Fisher Scientific, cat. 17504044), 1X N-2 supplement (Thermo Fisher Scientific, cat. 17502048), 10 microM Y-27632 dihydrochloride (Tocris Bioscience, cat. 1254), and 50 ng/mL human EGF recombinant protein (Thermo Fisher Scientific, cat. PHG0311). The 485176-168-R4-J1-PDC line was cultured in Panc media, which includes all 6C/Colon 1B media components plus 100 ng/mL human FGF-10 (Thermo Fisher Scientific, cat. 100-26), 500 nM SB-431542 (Selleckchem, cat. S1067), and gastrin (Tocris, cat. 3006).
[…]

[1] = compound alone, run of 02/20/2024
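Note: spheroids exposed to compounds for one week before readout.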
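Throughout, for viability, T/C: percent viability relative to vehicle DMSO wells taken as 100%.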

SMILES	IC50 (curve of compound)	IC50 [1]	IC50 (compound alone, run of 02/26/2024)	viability, T/C (compound 0.0316 µM)	viability, T/C (compound 0.1 µM)	viability, T/C (compound 0.316 µM)	viability, T/C (compound 1 µM)	viability, T/C (compound 3.16 µM)	viability, T/C (compound 10 µM)	viability, T/C (compound 0.000999 µM)	viability, T/C (compound 0.00316 µM)	viability, T/C (compound 0.00999 µM)	viability, T/C (compound 0.0999 µM)
COc1cc(C2c3cc4c(cc3C(OC3OC5COC(C)OC5C(O)C3O)C3COC(=O)C23)OCO4)cc(OC)c1O (stereo unspecified)				86.8% and 82.9% and 104%	53.1% and 58.3% and 93.6%	55.8% and 48.1% and 82.6%	48.6% and 52.9% and 78.4%	42.6% and 39.1% and 59.5%	27.6% and 27.1% and 41.6%				
COc1ccc([C@@H](O)c2cc(-c3ncnc4cc(N5CCOCC5)ccc34)c(F)cc2Cl)nn1	> 10000 nM and 8850 nM			106% and 108% and 100%	90.5% and 103% and 89.7%	105% (2×) and 86%	82.6% and 98.4% and 79.4%	70.2% and 85.2% and 62%	56.8% and 59.8% and 48.4%				
COc1ncnc(C2CC2)c1-c1ncc2cnn(Cc3ccc(-c4nc(C(F)(F)F)cn4C(C)C)cc3)c2n1	> 10000 nM			101% and 105% and 104%	92.3% and 102% and 96%	101% and 105% and 104%	93.7% and 103% and 102%	104% and 99.2% and 97.6%	102% and 105% and 103%				
Cc1[nH]c2ccc(F)cc2c1-c1nc2c3cccnc3c3ncccc3c2[nH]1		> 10000 nM	> 10000 nM	106% [middle of 12 runs]	107% [middle of 12 runs]	103% [middle of 12 runs]	104% [middle of 12 runs]	92.1% [middle of 12 runs]	95.5% [middle of 12 runs]				
Cc1cnc(CNC(=O)c2c(=O)c3ccc(N4CCCN(C)CC4)nc3n3c2sc2ccccc23)cn1		169 nM [middle of 10 runs]		92.5% [middle of 12 runs]	69.2% [middle of 11 runs]	26.9% [middle of 12 runs]	5.05% [middle of 12 runs]	2.9% [middle of 12 runs]	1.41% [middle of 12 runs]				

More lines, main results first:

IC50 (curve of compound)	IC50 [1]	IC50 (compound alone, run of 02/26/2024)	SMILES	viability, T/C (compound 0.0316 µM)	viability, T/C (compound 0.1 µM)	viability, T/C (compound 0.316 µM)	viability, T/C (compound 1 µM)	viability, T/C (compound 3.16 µM)	viability, T/C (compound 10 µM)	viability, T/C (compound 0.000999 µM)	viability, T/C (compound 0.00316 µM)	viability, T/C (compound 0.00999 µM)	viability, T/C (compound 0.0999 µM)
415 nM and 751 nM and 277 nM			COc1cccc2c1C(=O)c1c(O)c3c(c(O)c1C2=O)CC(O)(C(=O)CO)CC3OC1CC(N)C(O)C(C)O1 (stereo unspecified)	84.6% and 101% and 86.6%	60% and 94.5% and 51.8%	57.6% and 71.5% and 49.7%	43.2% and 45.9% and 44.8%	7.65% and 8.98% and 6.13%	0.27% and 0.59% and 0.13%				
> 316 nM and 283 nM			Cc1[nH]c2ccccc2c1CCNCc1ccc(/C=C/C(=O)NO)cc1	107% and 104% and 96.4%		53% and 66.9% and 44.9%				100% and 105% (2×)	102% (2×) and 105%	102% and 112% and 104%	102% (2×) and 94.5%
> 10000 nM			Cc1cccc(N(C)C(=O)C2C(O)CCN2c2nc(C)cc(C(F)(F)F)c2C#N)c1 (stereo unspecified)	104% and 102% and 105%	93.1% and 96.1% and 98.8%	107% and 103% and 101%	91.1% and 105% and 94.8%	114% and 105% and 106%	91.3% and 104% and 91.7%				
> 316 nM			Cn1ncnc1[C@H]1c2n[nH]c(=O)c3cc(F)cc(c23)N[C@@H]1c1ccc(F)cc1	94.3% and 104% and 94.9%		96.8% and 101% and 85.9%				102% and 99.8% and 101%	99.8% and 104% and 94%	99.8% and 105% and 98.9%	97.9% and 101% and 106%
105 nM and 386 nM and 161 nM			Nc1ccn(C2OC(CO)C(O)C2(F)F)c(=O)n1 (stereo unspecified)	75.3% and 98.5% and 97.2%	43.2% and 80.9% and 48.4%	45.5% and 58.7% and 54.6%	12.3% and 22.7% and 10.3%	8.31% and 14.9% and 6.52%	6.59% and 14.8% and 5.26%				
1490 nM and 1480 nM and 570 nM			O=C(NO)c1cnc(N2CCN(S(=O)(=O)c3ccc4ccccc4c3)CC2)nc1	112% and 103% and 107%	105% and 103% and 92.6%	104% and 103% and 82.3%	75.6% and 75% and 19.8%	0.92% and 0.99% and 0.08%	0.38% and 0.52% and 0.08%				
> 10000 nM			O=C(c1cc(Cc2n[nH]c(=O)c3ccccc23)ccc1F)N1CCN(C(=O)C2CC2)CC1	99.4% and 111% and 122%	104% and 105% and 95.9%	90.5% and 106% and 98.7%	92.2% and 107% and 88.4%	108% and 98.6% and 97%	101% and 106% and 96%				
1950 nM and 2010 nM and 8270 nM			O=c1[nH]cc(F)c(=O)[nH]1	105% and 101% and 108%	88% and 103% and 95.2%	99.2% and 102% and 99.4%	69.5% and 66.1% and 91.1%	35.9% and 40.5% and 63.2%	22.8% and 19.8% and 47.5%				

Source: PubChem BioAssay AID2060491 (Molecular Pharmacology Branch, DTP, NCI, 2025)
